One data set deals with T1, r-hPDE2A (Homo sapiens, UniProt O00408).
T1 construct: host or cells: HEK293 cells, transient transfection; soluble cytosolic fraction used
Nature of the data set: Measurement of PDE2 inhibition in vitro (IMAP fluorescence polarization, FL-cAMP substrate). It is filed as biochemical. Conditions: 1 μM cGMP. How it is done:
Measurement of PDE2 Inhibition In Vitro
r-hPDE2A (Accession No. NM_002599, Homo sapiens phosphodiesterase 2A, cGMP-stimulated, transcript variant 1) A mammalian expression cloning vector with recombinant cDNA copy of the gene is purchased from Origene. Protein is expressed via transient transfection of HEK293 cells. The cells are harvested at 48 hours after transfection, washed once with TBS buffer (50 mM Tris-HCl, pH 7.5, 150 mM NaCl), then lysed by sonication in cold homogenization buffer (50 mM Tris-HCl, pH 7.5, 5 mM MgCl2, lx protease inhibitor cocktail). The homogenate is centrifuged for […] at 15,000 g at 4° C. to obtain the soluble cytosolic fraction. The protein concentration of the cytosol is determined using BCA Protein Assay Kit (Pierce) with bovine serum albumin as a standard.
PDE2A is assayed with FL-cAMP as substrate. An enzyme titration is first performed to determine the working concentration of PDE. The concentration of the enzyme giving activity of 100 ΔmP in the absence of inhibitor is deemed an appropriate working concentration for PDE.
PDE enzyme is diluted in a standard reaction buffer (10 mM Tris-HCl pH 7.2, 10 mM MgCl2, 0.1% BSA, 0.05% NaN3) according to the titration curve. For PDE2 assay the reaction buffer is supplemented with 1 μM cGMP to fully activate the enzyme. 99 μl of diluted enzyme solution is added into each well in a flat bottom 96-well polystyrene plate and then 1 μl of test compound dissolved in 100% DMSO is added. The compounds are mixed and pre-incubated with the enzyme for 10 min at room temperature.
The FL-cNMP conversion reaction is initiated by addition of substrate (45 nM final). Enzyme and inhibitor mix (16 μl) and substrate solution (4 μl of 0.225 μM) are combined in a 384-well microtiter plate. The reaction is incubated in the dark at room temperature for 15 min. The reaction is halted by addition of 60 μl of binding reagent (1:400 dilution of IMAP beads in binding buffer supplemented with 1:1800 dilution of antifoam) to each well of the 384-well plate. The plate is incubated at room temperature for 1 hour to allow IMAP binding to proceed to completion, and then placed in an Envision multimode microplate reader (PerkinElmer, Shelton, Conn.) to measure the fluorescence polarization (Δmp).
A decrease in cAMP concentration, measured as decreased Amp, is indicative of inhibition of PDE activity. […] IC50 values are estimated using nonlinear regression software, fitting a four-parameter one-site dose-response model (XLFit; IDBS, Cambridge, Mass.). […]
The total fluorescence intensity of each sample well is measured to calculate the average and standard deviation. If the total fluorescence intensity of any sample well is not within the range of Average±3SD, the mp value of that particular well is discarded. […]

Data set [1] in a line: Pharmacokinetic study in mice (plasma and brain availability). Type of data set: in vivo. To be noted: single oral dose 10 mg/kg PO, 0.25-4h, FIG. 1. How it is done: FIG. 1 illustrats the plasma and brain levels in mice dosed with 10 mg/kg P.O. of the compound of Example 1 over time.
Mice are given a single oral dose of the compound to be tested (10 mg/kg, PO) and plasma and brain availability are measured (0.25-4h) using HPLC and LC-MS using methods analogous to those described in Zhao et al., J. Chromatogr. B. Analyt. Technol. Biomed. Life Sci. (2005) 819(1):73-80 and Appels, N. M., et al., Rapid Commun. Mass Spec. 2005. 19(15): p. 2187-92.

In another data set the test system is Wistar rats. Nature of the data set: Object recognition task, memory performance of Wistar rats. It is filed as in vivo, rat. Conditions: male Wistar rats, oral, 2 h before learning. How it is done:
The Effects of Treatment with PDE2 Inhibitors on Memory Performance of Wistar Rats in the Object Recognition Task
The memory-enhancing effects of the compound of Example 1 are tested in an animal model of cognition, the object recognition task. See, Ennaceur, A., Delacour, J., 1988. A new one-trial test for neurobiological studies of memory in rats. 1: Behavioral data. Behav. Brain Res. 31, 47-59. Rats remember which object they have explored in a previous trial when they are tested one hour later. However, when a 24 h inter-trial interval is used, they are not able to remember which object was presented to them in the first trial. It is tested whether the compound of Example 1 would attenuate this time-induced object memory deficit, when given 2 h before the first trial. The compounds are given to 2-3-months-old male Wistar rats.
The compound of Example 1 is injected orally (2 ml/kg) 2 h before learning, at doses of 0, 0.3, 1, 3 and 10 mg/kg.

The test system of another data set is PDE3. Briefly: Selectivity for PDE2 over PDE3. It is filed as biochemical. As for the experimental part: (§1) Using the IMAP procedure described or similarly described above, we screened a proprietary PDE-focused compound library to identify novel compounds with nanomolar PDE2 inhibitory activities. […] The compounds are moreover selective for PDE2; the compound of Example 4 is tested and shown to be selective for PDE2 over PDE1, PDE3, PDE4D, PDE5, PDE6, PDE7B, PDE8A, PDE9A, PDE10A and PDE11A by greater than 20-fold.

The test system of another data set is PDE6. Briefly: Selectivity for PDE2 over PDE6. Type of data set: biochemical. As for the experimental part:
as §1

A further data set concerns the target PDE11A (Homo sapiens, UniProt Q9HCR9). Briefly: Selectivity for PDE2 over PDE11A. Type of data set: biochemical. As for the experimental part: as §1
The next data set addresses PDE7B (Homo sapiens, UniProt Q9NP56). Briefly: Selectivity for PDE2 over PDE7B. It is filed as biochemical. How it is done:
as §1

The target of a further data set is PDE10A (Homo sapiens, UniProt Q9Y233). Briefly: Selectivity for PDE2 over PDE10A. Type of data set: biochemical. As for the experimental part:
as §1

For a further data set, the target named is PDE4D (Homo sapiens, UniProt Q08499). Briefly: Selectivity for PDE2 over PDE4D. It is filed as biochemical. How it is done:
as §1

The next data set deals with PDE8A (Homo sapiens, UniProt O60658). Nature of the data set: Selectivity for PDE2 over PDE8A. It is filed as biochemical. How it is done: as §1
Chain of PDE8A (O60658 whole entry, species assumed): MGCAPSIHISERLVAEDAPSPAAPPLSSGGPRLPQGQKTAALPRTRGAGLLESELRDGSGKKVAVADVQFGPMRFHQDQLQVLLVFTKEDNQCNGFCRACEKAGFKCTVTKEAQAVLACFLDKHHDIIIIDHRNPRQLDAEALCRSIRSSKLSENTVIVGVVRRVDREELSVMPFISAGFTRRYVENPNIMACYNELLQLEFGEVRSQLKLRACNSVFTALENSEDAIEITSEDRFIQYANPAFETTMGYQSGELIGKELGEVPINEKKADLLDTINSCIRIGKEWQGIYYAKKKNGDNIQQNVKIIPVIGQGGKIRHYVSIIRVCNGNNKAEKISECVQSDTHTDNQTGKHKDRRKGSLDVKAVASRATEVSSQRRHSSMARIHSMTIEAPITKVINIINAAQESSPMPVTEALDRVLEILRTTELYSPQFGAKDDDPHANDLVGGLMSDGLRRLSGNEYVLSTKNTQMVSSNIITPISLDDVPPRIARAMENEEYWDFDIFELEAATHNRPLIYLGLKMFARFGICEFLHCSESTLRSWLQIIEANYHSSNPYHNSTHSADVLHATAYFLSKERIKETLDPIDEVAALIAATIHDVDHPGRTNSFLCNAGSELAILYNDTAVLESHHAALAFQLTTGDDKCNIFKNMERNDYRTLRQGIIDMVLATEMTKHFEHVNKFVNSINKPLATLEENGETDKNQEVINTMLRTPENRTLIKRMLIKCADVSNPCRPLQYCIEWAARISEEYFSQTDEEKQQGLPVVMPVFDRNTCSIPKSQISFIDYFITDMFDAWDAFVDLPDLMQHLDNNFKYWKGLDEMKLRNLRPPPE
The target in the next data set is PDE9A (Homo sapiens, UniProt O76083). Briefly: Selectivity for PDE2 over PDE9A. Type of data set: biochemical. How it is done:
as §1

A further data set concerns the target PDE5 (Homo sapiens, UniProt O76074). Nature of the data set: Selectivity for PDE2 over PDE5. It is filed as biochemical. How it is done:
as §1

The next data set has as its system PDE1. Nature of the data set: Selectivity for PDE2 over PDE1. It is filed as biochemical. How it is done: as §1

T1 sequence (O00408 whole entry): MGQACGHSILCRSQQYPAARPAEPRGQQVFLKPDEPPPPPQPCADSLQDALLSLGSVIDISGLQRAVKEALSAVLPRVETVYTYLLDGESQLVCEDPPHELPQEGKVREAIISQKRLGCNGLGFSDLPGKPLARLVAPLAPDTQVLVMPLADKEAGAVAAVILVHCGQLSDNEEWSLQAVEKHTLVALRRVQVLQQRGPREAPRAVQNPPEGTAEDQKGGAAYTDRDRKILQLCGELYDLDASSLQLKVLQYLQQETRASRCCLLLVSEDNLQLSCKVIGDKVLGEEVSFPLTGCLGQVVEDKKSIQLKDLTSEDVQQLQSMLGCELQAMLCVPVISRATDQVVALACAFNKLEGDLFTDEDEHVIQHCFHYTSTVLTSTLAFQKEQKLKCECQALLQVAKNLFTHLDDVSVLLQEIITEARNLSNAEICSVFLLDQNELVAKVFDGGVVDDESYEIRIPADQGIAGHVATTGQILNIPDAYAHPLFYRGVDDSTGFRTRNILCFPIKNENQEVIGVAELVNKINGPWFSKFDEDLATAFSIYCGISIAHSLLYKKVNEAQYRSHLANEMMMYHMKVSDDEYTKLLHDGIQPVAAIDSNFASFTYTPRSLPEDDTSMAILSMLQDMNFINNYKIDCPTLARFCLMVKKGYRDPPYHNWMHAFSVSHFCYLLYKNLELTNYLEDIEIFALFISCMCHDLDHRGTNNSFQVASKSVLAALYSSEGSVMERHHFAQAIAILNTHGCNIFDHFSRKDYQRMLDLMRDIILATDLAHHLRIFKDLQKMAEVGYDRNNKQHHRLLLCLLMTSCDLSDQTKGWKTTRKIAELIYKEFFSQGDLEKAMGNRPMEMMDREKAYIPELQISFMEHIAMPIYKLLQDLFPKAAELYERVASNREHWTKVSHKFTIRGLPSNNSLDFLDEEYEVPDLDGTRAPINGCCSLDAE
Chain of PDE4D (Q08499 whole entry, species assumed): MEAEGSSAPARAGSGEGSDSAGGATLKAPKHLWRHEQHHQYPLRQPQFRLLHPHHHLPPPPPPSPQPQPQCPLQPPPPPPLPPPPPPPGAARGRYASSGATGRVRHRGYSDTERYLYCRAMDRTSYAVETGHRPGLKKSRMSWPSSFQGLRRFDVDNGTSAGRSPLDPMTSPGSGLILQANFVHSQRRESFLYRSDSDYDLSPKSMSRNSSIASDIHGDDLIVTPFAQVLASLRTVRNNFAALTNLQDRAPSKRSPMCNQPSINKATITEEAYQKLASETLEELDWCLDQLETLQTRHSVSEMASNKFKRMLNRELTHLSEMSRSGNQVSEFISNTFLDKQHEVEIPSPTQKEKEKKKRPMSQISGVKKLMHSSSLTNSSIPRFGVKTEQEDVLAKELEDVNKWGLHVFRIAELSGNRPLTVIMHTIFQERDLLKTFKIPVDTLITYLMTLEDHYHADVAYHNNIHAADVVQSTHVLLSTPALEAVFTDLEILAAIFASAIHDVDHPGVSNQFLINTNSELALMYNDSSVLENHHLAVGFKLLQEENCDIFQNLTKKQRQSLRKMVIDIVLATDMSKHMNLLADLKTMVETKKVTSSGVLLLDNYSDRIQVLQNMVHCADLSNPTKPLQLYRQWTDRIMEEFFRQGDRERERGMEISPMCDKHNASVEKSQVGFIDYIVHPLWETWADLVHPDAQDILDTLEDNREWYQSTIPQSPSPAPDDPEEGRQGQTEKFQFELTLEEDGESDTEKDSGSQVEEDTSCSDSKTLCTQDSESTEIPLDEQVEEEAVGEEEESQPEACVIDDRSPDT
Chain of PDE11A (Q9HCR9 whole entry, species assumed): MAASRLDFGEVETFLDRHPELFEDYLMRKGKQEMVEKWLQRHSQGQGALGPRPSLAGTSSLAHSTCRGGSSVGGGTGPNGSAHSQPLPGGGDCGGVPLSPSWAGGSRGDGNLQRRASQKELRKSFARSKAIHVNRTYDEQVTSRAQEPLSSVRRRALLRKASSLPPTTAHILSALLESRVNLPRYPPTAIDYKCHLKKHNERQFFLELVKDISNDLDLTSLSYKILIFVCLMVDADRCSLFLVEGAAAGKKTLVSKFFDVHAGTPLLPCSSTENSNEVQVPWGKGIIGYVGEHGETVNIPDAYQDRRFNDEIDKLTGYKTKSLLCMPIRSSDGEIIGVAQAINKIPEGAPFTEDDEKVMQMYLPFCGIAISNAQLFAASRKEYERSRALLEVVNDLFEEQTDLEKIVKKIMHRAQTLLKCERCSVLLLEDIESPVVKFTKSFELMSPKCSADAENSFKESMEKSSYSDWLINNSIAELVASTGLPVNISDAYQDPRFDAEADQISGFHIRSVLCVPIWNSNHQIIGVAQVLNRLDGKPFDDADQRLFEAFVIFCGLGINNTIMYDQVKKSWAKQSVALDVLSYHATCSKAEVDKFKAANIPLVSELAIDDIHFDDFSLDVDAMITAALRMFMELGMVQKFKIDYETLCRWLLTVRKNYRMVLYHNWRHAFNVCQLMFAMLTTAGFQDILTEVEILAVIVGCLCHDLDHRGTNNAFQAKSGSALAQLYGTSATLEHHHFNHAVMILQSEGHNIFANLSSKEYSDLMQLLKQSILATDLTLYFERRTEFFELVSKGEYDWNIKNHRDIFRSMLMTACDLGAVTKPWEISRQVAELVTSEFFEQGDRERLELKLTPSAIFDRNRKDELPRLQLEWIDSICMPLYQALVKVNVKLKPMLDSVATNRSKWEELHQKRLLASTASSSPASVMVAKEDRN
Chain of PDE9A (O76083 whole entry, species assumed): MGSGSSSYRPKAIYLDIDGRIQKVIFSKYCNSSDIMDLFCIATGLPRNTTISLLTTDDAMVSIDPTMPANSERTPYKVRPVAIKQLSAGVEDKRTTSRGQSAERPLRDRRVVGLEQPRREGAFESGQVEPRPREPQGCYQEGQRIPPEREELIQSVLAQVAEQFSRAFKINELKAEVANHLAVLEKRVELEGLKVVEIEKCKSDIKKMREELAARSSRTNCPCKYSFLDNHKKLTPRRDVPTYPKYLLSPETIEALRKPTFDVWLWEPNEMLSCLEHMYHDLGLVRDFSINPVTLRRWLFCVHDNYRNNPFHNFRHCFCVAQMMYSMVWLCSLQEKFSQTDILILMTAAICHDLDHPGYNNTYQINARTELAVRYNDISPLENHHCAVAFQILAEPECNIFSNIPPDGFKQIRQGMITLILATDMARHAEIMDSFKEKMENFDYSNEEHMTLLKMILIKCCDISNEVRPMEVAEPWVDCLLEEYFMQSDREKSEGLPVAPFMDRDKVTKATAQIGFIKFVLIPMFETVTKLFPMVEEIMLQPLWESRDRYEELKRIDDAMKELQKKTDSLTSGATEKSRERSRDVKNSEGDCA
Chain of PDE7B (Q9NP56 whole entry, species assumed): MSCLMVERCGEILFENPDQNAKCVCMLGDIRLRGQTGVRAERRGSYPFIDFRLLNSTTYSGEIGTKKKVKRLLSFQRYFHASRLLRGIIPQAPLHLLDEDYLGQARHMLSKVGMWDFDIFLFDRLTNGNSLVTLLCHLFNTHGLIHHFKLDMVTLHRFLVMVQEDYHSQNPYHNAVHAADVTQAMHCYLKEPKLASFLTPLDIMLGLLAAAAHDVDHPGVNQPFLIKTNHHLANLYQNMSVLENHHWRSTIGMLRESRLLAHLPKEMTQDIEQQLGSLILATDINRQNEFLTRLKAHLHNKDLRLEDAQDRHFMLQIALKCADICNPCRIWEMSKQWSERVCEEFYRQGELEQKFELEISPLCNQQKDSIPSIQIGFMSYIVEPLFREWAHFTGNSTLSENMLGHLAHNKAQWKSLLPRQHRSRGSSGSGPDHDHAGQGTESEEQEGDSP

At r-hPDE2A, `Cc1nn(-c2cnn(C)c2-c2ccc(C3CC3)cc2)c2c(N3CCC3)ncnc12` [Example 3, 7-(Azetidin-1-yl)-1-(5-(4-cyclopropylphenyl)-1-methyl-1H-pyrazol-4-yl)-3-methyl-1H-pyrazolo[4,3-d]pyrimidine] yielded an IC50 of 9.5 nM.
In turn, `Cc1nn(-c2cnn(C)c2-c2ccc(C(F)(F)F)cc2)c2c(N3CCC3)ncnc12` [Example 1, 7-(Azetidin-1-yl)-3-methyl-1-(1-methyl-5-(4-(trifluoromethyl)phenyl)-1H-pyrazol-4-yl)-1H-pyrazolo[4,3-d]pyrimidine] registered an IC50 on r-hPDE2A of 23.1 nM. For the same molecule, the “brain access (plasma and brain availability)” value in data set [1] is “good brain access”. For the same molecule, the “memory improvement (object memory, 24 h inter-trial interval)” value in the data set on Wistar rats (0.3 mg/kg) and with Wistar rats (3.0 mg/kg) was “intermediate memory improvement” each time. For the same molecule, the “time-dependent forgetting (object memory, 24 h inter-trial interval)” value with Wistar rats (1.0 mg/kg) is “completely prevent the time-dependent forgetting”.
`CCc1ccc(-c2c(-n3nc(C)c4ncnc(N5CCC5)c43)cnn2C)cc1` [Example 4, 7-(Azetidin-1-yl)-1-(5-(4-ethylphenyl)-1-methyl-1H-pyrazol-4-yl)-3-methyl-1H-pyrazolo[4,3-d]pyrimidine] showed a 50% inhibitory concentration (IC50) against r-hPDE2A of 18.5 nM. In addition, in the data set with PDE3, the “selectivity for PDE2 over PDE3” value is given as “greater than 20 fold”. Besides, the “selectivity for PDE2 over PDE6” value in the data set with PDE6 is “greater than 20 fold”. For the same molecule, on PDE11A, the “selectivity for PDE2 over PDE11A” value was “greater than 20 fold”. For the same molecule, the “selectivity for PDE2 over PDE7B” value on PDE7B was “greater than 20 fold”. Further, the “selectivity for PDE2 over PDE10A” value on PDE10A was “greater than 20 fold”. For the same molecule, on PDE4D, the “selectivity for PDE2 over PDE4D” value was “greater than 20 fold”. Further, at PDE8A, the “selectivity for PDE2 over PDE8A” value is “greater than 20 fold”. Also, the “selectivity for PDE2 over PDE9A” value at PDE9A is “greater than 20 fold”. In addition, the “selectivity for PDE2 over PDE5” value on PDE5 was “greater than 20 fold”. Moreover, the “selectivity for PDE2 over PDE1” value in the data set on PDE1 was “greater than 20 fold”.
At r-hPDE2A, `COc1ccc(-c2c(-n3nc(C)c4ncnc(N5CCC5)c43)cnn2C)c(C)c1` [Example 2, 7-(Azetidin-1-yl)-1-(5-(4-methoxy-2-methylphenyl)-1-methyl-1H-pyrazol-4-yl)-3-methyl-1H-pyrazolo[4,3-d]pyrimidine] showed an IC50 of 92 nM.

The values above are taken from US10300064B2, “Organic compounds” (INTRA-CELLULAR THERAPIES, INC., priority 2014, dated 2019).
